Measurements published in patent publication US5496856A, “Aspartame for its application as a therapeutically active substance” (priority 1993, dated 1996).
“Also recorded” adds a separate entry of the source. Peptide text beside a SMILES is read from it.

What was measured:
human plasma proteins [1] = experiment: OTA binding to human plasma proteins, condition (ii): OTA with or without aspartame in lower compartment; format: in vitro ADME
Method: (§1) A further study was performed in order to determine the effect of aspartame on OTA binding on human plasma proteins in vitro.
(§2) An in-vitro study was performed on plasma samples obtained from healthy human volunteers, from a French blood bank (Centre de transfusion sanguine in Bordeaux), using citrate as anticoagulant. Blood samples were centrifuged at 1800 g for 30 minutes. This pooled human plasma contained 41±3 g of proteins per liter.
(§3) Static diffusion cells (polypropylene, homemade according to the model provided by Nalgene, USA) containing two compartments (upper and lower) separated by a dialysing membrane having a 10 000 D exclusion limit (Sigma Chemical, USA) were used. This membrane allows OTA and aspartame diffusion and not protein diffusion.
(§4) A human plasma sample was placed in the upper compartment and a medium (RPMI 1640, Sigma chemical, USA) in the lower one.
(§5) The plasma binding properties of OTA were evaluated under two different conditions:
(ii) The upper compartment contained human plasma proteins only and OTA (20, 100 and 500 μg/ml) was added into the lower compartment alone or concommitantly with 10 μg/ml aspartame.
(§6) OTA concentration in the upper compartment was determined by HPLC (Mobile phase: methanol, acetonitrile, acetic acid, sodium acetate 5 mM (300: 300: 400: 14 v/v/v/v); injection volume 50 μl; flow rate 1 ml/min; run time for one cycle: 10 min and fluorescence detection (excitation at 340 nm and emission at 465 nm).
(§7) Before extraction of OTA from the plasma, all the studied samples of plasma, which had already fixed OTA, were dialysed against free OTA RPMI medium for at least 15 minutes, one or several times, until no more OTA was found in the lower compartment.
(§8) The results obtained under condition (i) as defined hereinabove are reported in Table I, whereas the results obtained under condition (ii) are reported in Table II.
Under condition (ii) (Table II), the aspartame was put in the same compartment as OTA in the non-plasmatic compartment to mimic the stomach (the ration OTA/aspartame=1.5 to 36).

DNA = DNA adducts by postlabeling with ATP gamma 32P in organs (genotoxicity); format: in vivo, rats
Method: (§9) The animals used in this experiment are male rats of the Wistar strain weighing 160±10 g.
(§10) The aspartame is administered by gavage, at the same time as the ochratoxin A, every 48 hours for 3 weeks.
(§11) The control and treated rats are placed in a metabolic cage for 24 hours for urine sampling and then sacrificed.
The organs of the same animals were used for extraction of the DNA, which was analyzed by the technique of postlabeling with ATP gamma 32P in order to evaluate the genotoxicity by the presence of adducts with DNA bases.

glomerular filtration [2] = experiment: Serum and urine creatinine in ochratoxin A-treated rats; format: in vivo, male rats of the Wistar strain
Method: The animals used in this experiment are male rats of the Wistar strain weighing 160±10 g. The animals are classified in order of increasing weight and distributed randomly into 4 groups of 6 rats (homogeneous distribution by randomization).
An amount of ochratoxin A corresponding to 289 μg/kg of body weight is given to the rats by gavage every 48 hours for 3 weeks; the toxin is dissolved in 0.3 ml of a 0.1 M solution of NaHCO3, pH 7.4.

tubular cells = experiment: Urinary renal enzyme activities (LAP, PAL, LDH, γ-GT) in rats treated with ochratoxin A; format: in vivo; settings: aspartame 25 mg/kg + ochratoxin A 289 μg/kg, 3 weeks
Method: as §9, §10
(§12) Group I: control rats (blanks)
(§13) Group II: control rats treated with 0.1 M NaHCO3, pH 7.4
(§14) Group III: rats treated with ochratoxin A (289 μg/kg)
(§15) Group IV: rats treated with ochratoxin A (289 μg/kg)+aspartame (25 mg/kg).
as §11

[3] = Urine proteins in rats treated with ochratoxin A; format: in vivo; settings: aspartame 25 mg/kg + ochratoxin A 289 μg/kg, 3 weeks
Method: as §9, §10, §12, §13, §14, §15, §11

renal cells = experiment: Entry of ochratoxin into renal cells; settings: ochratoxin A with aspartame
glomerular filtration [4] = settings: mice
Method: Male mice of the Swiss strain weighing 32±2 g are distributed into cages in groups of 5. The animals are classified in order of increasing weight and distributed randomly into 4 groups of 5 mice (homogeneous distribution by randomization).
An amount of ochratoxin A corresponding to 289 μg/kg of body weight is given to the mice via an esophageal tube every 48 h for one week; the toxin is dissolved in 0.3 ml of 0.1M NaHCO3, pH 7.4.
0.3 ml of 0.1 M NaHCO3, pH 7.4, is given in the same way to the mice used as controls.
4 groups of 5 mice were studied.
Group I: control mice treated with 0.1 M NaHCO3, pH 7.4
Group II: mice treated with ochratoxin A (289 μg/kg)
Group III: mice treated with ochratoxin A (289 μg/kg)+aspartame (30 mg/kg)
Group IV: control mice treated with aspartame only.
The aspartame is administered in 0.3 ml of H2 O one hour after the last administration of ochratoxin A.
The mice are placed in a metabolic cage for 15 hours and then sacrificed.
The creatinine is assayed in the 15-hour urine and serum.

[5] = Serum and urine assays of ochratoxin (urinary elimination); format: in vivo, rats
Method: as §9, §10, §12, §13, §14, §15, §11

human plasma proteins [6] = experiment: OTA binding to human plasma proteins, condition (i): aspartame in upper (plasma) compartment; format: in vitro ADME
Method: as §1, §2, §3, §4, §5
(i) The aspartame at a concentration of 10 μg/ml was added in the upper compartment containing human plasma proteins before introducing OTA at three different concentrations (20, 100, and 500 μg/ml) in the lower compartment;
as §6, §7, §8

[7] = Toxic oxidative effects of ochratoxin A in vivo and in vitro
[8] = Plasma concentration of aspartame after oral administration; format: in vivo; settings: within 24h, per os
[9] = OTA 20 μg/ml, 30 min, aspartame 10 μg/ml
[10] = OTA 20 μg/ml, 60 min, aspartame 10 μg/ml
[11] = OTA 20 μg/ml, 120 min, aspartame 10 μg/ml
[12] = OTA 100 μg/ml, 30 min, aspartame 10 μg/ml
[13] = OTA 100 μg/ml, 60 min, aspartame 10 μg/ml
[14] = OTA 100 μg/ml, 120 min, aspartame 10 μg/ml
[15] = OTA 500 μg/ml, 30 min, aspartame 10 μg/ml
[16] = OTA 500 μg/ml, 60 min, aspartame 10 μg/ml
[17] = OTA 500 μg/ml, 120 min, aspartame 10 μg/ml
[18] = rats, aspartame 25 mg/kg + ochratoxin A 289 μg/kg every 48 h, 3 weeks, gavage
[19] = aspartame 30 mg/kg one hour after last ochratoxin A

Question: With `COC(=O)[C@H](Cc1ccccc1)NC(=O)[C@@H](N)CC(=O)O` [Aspartame, methyl ester of L-aspartyl- L-phenylalanine] (H-Asp-Phe-OMe) as the compound, how does the “Quantities of OTA bound to plasma proteins, OTA + Aspartame (Table II)” value (shortened to “Quantities of OTA bound … (Table II)”) (human plasma proteins [1]; [9]) read?
Answer: Its value is 159 ± 13 ng/mL.

Question: What about the “Quantities of OTA bound … (Table II)” value (human plasma proteins [1]; [10]) of the same compound?
Answer: The value was 53 ± 6 ng/mL.

Question: What about the “Quantities of OTA bound … (Table II)” value (human plasma proteins [1]; [11]) of the same compound?
Answer: Its value is 39 ± 4 ng/mL.

Question: And the “Quantities of OTA bound … (Table II)” value (human plasma proteins [1]; [12])?
Answer: The value was 245 ± 15 ng/mL.

Question: What about the “Quantities of OTA bound … (Table II)” value (human plasma proteins [1]; [13]) of the same compound?
Answer: Its value is 459 ± 27 ng/mL.

Question: What about the “Quantities of OTA bound … (Table II)” value (human plasma proteins [1]; [14]) of the same compound?
Answer: Its value is 587 ± 38 ng/mL.

Question: And the “Quantities of OTA bound … (Table II)” value (human plasma proteins [1]; [15])?
Answer: The value was 516 ± 19 ng/mL.

Question: And the “Quantities of OTA bound … (Table II)” value (human plasma proteins [1]; [16])?
Answer: The value was 1127 ± 89 ng/mL.

Question: What about the “Quantities of OTA bound … (Table II)” value (human plasma proteins [1]; [17]) of the same compound?
Answer: The value was 1789 ± 56 ng/mL.

Question: What about the “efficiency in preventing the binding of OTA on human plasma proteins” value (human plasma proteins [1]; OTA in lower compartment (stomach), OTA as high as 20 μg/ml) of the same compound?
Answer: Its value is “more than 95%”.

Question: And the “prevention of the binding of OTA” value (human plasma proteins [1]; Table II, OTA 100 μg/ml, aspartame 10 μg/ml)?
Answer: The value was 50%.

Question: What about the “efficiency in preventing OTA binding (in words)” value (human plasma proteins [1]; Table II, OTA 500 μg/ml, aspartame 10 μg/ml) of the same compound?
Answer: Its value is “no longer efficient”.

Question: What about the “DNA adducts in organs, aspartame and OTA” value (DNA; aspartame 25 mg/kg + OTA 289 μg/kg, 3 weeks) of the same compound?
Answer: The value was “virtually complete disappearance of the DNA adducts; also recorded: comparable to those of the controls”.

Question: And the “nephrotoxic and genotoxic effects (overall conclusion)” value (DNA; results of the experiments performed)?
Answer: The value was “suppresses not only the nephrotoxic effects but also the genotoxic effects”.

Question: What about the “level of serum creatinine” value (glomerular filtration [2]; [18]) of the same compound?
Answer: Its value is “significant reduction in the level of serum creatinine”.

Question: What about the “level of urine creatinine” value (glomerular filtration [2]; [18]) of the same compound?
Answer: Its value is “parallel increase in the level of urine creatinine, which is comparable to the control level”.

Question: What about the “tubular and glomerular attacks caused by ochratoxin” value (glomerular filtration [2]; summary statement) of the same compound?
Answer: The value was “protects the kidney from the tubular and glomerular attacks caused by ochratoxin”.

Question: What about the “effect on the increase in urinary enzymic activities caused by ochratoxin A” value (tubular cells) of the same compound?
Answer: Its value is “appreciably reduces the increase in the enzymic activities caused by ochratoxin A”.

Question: And the “urinary enzymic activities vs controls” value (tubular cells)?
Answer: The value was “not being significantly different from those of the controls”.

Question: What about the “effect on the ochratoxin-induced increase in the level of urine proteins” value [3] of the same compound?
Answer: The value was “reduces the increase, induced by ochratoxin, in the level of urine proteins”.

Question: And the “concentration/entry of ochratoxin in renal cells” value (renal cells)?
Answer: Its value is “limiting the entry of ochratoxin into these cells; also recorded: reducing the concentration of ochratoxin in the renal cells”.

Question: And the “effect on the increase in serum creatinine” value (glomerular filtration [4]; [19])?
Answer: The value was “very markedly reduces the increase in serum creatinine”.

Question: What about the “effect on urine creatinine” value (glomerular filtration [4]; [19]) of the same compound?
Answer: Its value is “increases the level of urine creatinine, which is similar to the control values”.

Question: What about the “effects on serum creatinine and serum creatinine/urine creatinine ratio (glomerular filtration)” value (glomerular filtration [4]; aspartame 30 mg/kg with ochratoxin A 289 μg/kg) of the same compound?
Answer: The value was “beneficial”.

Question: And the “urinary elimination of ochratoxin” value ([5]; serum and urine assays, rats, aspartame 25 mg/kg + ochratoxin A, 3 weeks)?
Answer: The value was “very substantially favors urinary elimination of the ochratoxin A; also recorded: significantly increases the urinary elimination of ochratoxin”.

Question: What about the “effect on metabolism and elimination of ochratoxin A” value ([5]; summary statement) of the same compound?
Answer: Its value is “slow down the metabolism and accelerate the elimination of ochratoxin A”.

Question: What about the “Quantities of OTA bound to plasma proteins, OTA + Aspartame (Table I)” value (“Quantities of OTA bound … (Table I)” below) (human plasma proteins [6]; [9]) of the same compound?
Answer: The value was 157 ± 12 ng/mL.

Question: And the “Quantities of OTA bound … (Table I)” value (human plasma proteins [6]; [10])?
Answer: The value was 97 ± 4 ng/mL.

Question: And the “Quantities of OTA bound … (Table I)” value (human plasma proteins [6]; [11])?
Answer: Its value is 15 ± 3 ng/mL.

Question: What about the “Quantities of OTA bound … (Table I)” value (human plasma proteins [6]; [12]) of the same compound?
Answer: The value was 193 ± 17 ng/mL.

Question: And the “Quantities of OTA bound … (Table I)” value (human plasma proteins [6]; [13])?
Answer: The value was 74 ± 11 ng/mL.

Question: What about the “Quantities of OTA bound … (Table I)” value (human plasma proteins [6]; [14]) of the same compound?
Answer: Its value is 55 ± 15 ng/mL.

Question: What about the “OTA available that is bound as compared to control without aspartame” value (human plasma proteins [6]; OTA 100 μg/ml, aspartame 10 μg/ml) of the same compound?
Answer: The value was 4.5%.

Question: And the “Quantities of OTA bound … (Table I)” value (human plasma proteins [6]; [15])?
Answer: Its value is 275 ± 41 ng/mL.

Question: What about the “Quantities of OTA bound … (Table I)” value (human plasma proteins [6]; [16]) of the same compound?
Answer: Its value is 296 ± 45 ng/mL.

Question: And the “Quantities of OTA bound … (Table I)” value (human plasma proteins [6]; [17])?
Answer: Its value is 345 ± 51 ng/mL.

Question: And the “OTA available that is bound to plasma proteins as compared to control without aspartame” value (human plasma proteins [6]; OTA 500 μg/ml, aspartame 10 μg/ml)?
Answer: The value was 19.8%.

Question: What about the “dependence of efficiency in preventing OTA binding on OTA concentration” value (human plasma proteins [6]; OTA 20 to 500 μg/ml) of the same compound?
Answer: The value was “inversely proportional to the concentrations of OTA”.

Question: And the “OTA available that is bound as compared to the control without aspartame” value (human plasma proteins [6]; Table I, OTA 20 μg/ml, aspartame 10 μg/ml)?
Answer: The value was 2%.

Question: What about the “efficiency in preventing the binding of OTA on human plasma proteins” value (human plasma proteins [6]; Table I, OTA concentrations as high as 20 μg/ml, aspartame 10 μg/ml) of the same compound?
Answer: Its value is “about 98%”.

Question: What about the “OTA bound (in words)” value (human plasma proteins [6]; aspartame 10 μg/ml, i.e. 10 mg/l) of the same compound?
Answer: Its value is “practically no OTA bound”.

Question: What about the “efficiency in preventing the OTA binding on human plasma proteins (conclusion)” value (human plasma proteins [6]; normal conditions, OTA concentrations lower than 20 μg/ml) of the same compound?
Answer: The value was “at least 95%”.

Question: What about the “effect on toxic oxidative effects of ochratoxin A” value [7] of the same compound?
Answer: Its value is “opposes the toxic oxidative effects of ochratoxin A in vivo and in vitro”.

Question: What about the “oral dose of aspartame giving plasma concentration of 10 mg/l” value [8] of the same compound?
Answer: The value was 400 to 600 mg.
